What all share (type): biochemical
The target of experiment [1] is Jarid1A (Homo sapiens (Human), UniProt P29375). Briefly: Jarid1A in vitro enzyme inhibition assay (TR-FRET). As to conditions: 1 nM Jarid1A, 300 nM H3K4me3-biotin peptide, 2 μM alpha-ketoglutaric acid. The text has this:
(§1) This assay determines the ability of a test compound to inhibit Jarid1A, Jarid1B, and JMJD2C demethylase activity. Baculovirus expressed Jarid1A (GenBank Accession #NM_001042603, AA1-1090) was purchased from BPS Bioscience (Cat#50110). Baculovirus expressed Jarid1B (GenBank Accession #NM_006618, AA 2-751) was purchased from BPS Bioscience (Cat #50121) or custom made by MolecularThroughput. Baculovirus expressed JMJD2C (GenBank Accession #BC143571, AA 2-372) was purchased from BPS Bioscience (Cat#50105).
(§2) The enzymatic assay of Jarid1A activity is based upon Time Resolved-Fluorescence Resonance Energy Transfer (TR-FRET) detection. The ability of test compounds to inhibit the activity of Jarid1A was determined in 384-well plate format under the following reaction conditions: 1 nM Jarid1A, 300 nM H3K4me3-biotin labeled peptide (Anaspec cat #64357), 2 μM alpha-ketoglutaric acid in assay buffer of 50 mM HEPES, pH7.3, 0.005% Brij35, 0.5 mM TCEP, 0.2 mg/ml BSA, 50 μM sodium L-ascorbate, and 2 μM ammonium iron(II) sulfate. Reaction product was determined quantitatively by TR-FRET after the addition of detection reagent Phycolink Streptavidin-allophycocyanin (Prozyme) and Europium-anti-mono- or di-methylated histone H3 lysine 4 (H3K4me1-2) antibody (PerkinElmer) in the presence of 5 mM EDTA in LANCE detection buffer (PerkinElmer) at a final concentration of 25 nM and 1 nM, respectively.
(§3) The reaction mixture was incubated at room temperature for 30 minutes, and terminated by the addition of 6 μl of 5 mM EDTA in LANCE detection buffer containing 50 nM Phycolink Streptavidin-allophycocyanin and 2 nM Europium-anti-H3K4me1-2 antibody. Plates were read by EnVisionMultilabel Reader in TR-FRET mode (excitation at 320 nm, emission at 615 nm and 665 nm) after 1 hour incubation at room temperature. A ratio was calculated (665/615) for each well and fitted to determine inhibition constant (IC50).
(In general: In TR-FRET formats the signal depends on donor and acceptor labels being close together.)

Experiment [2] concerns the target JMJD2C (Homo sapiens (Human), UniProt Q9H3R0). In words: JMJD2C in vitro enzyme inhibition assay (TR-FRET). To be noted: 0.3 nM JMJD2C, 300 nM H3K9me3-biotin peptide, 2 μM alpha-ketoglutaric acid. The essentials: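 Baculovirus-expressed JMJD2C (AA 2-372), 0.3 nM, with 300 nM biotin-H3K9me3 peptide and 2 μM alpha-ketoglutarate in pH 7.3 HEPES buffer with ascorbate and Fe(II); 30 min at room temperature.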

Experiment [3] concerns the target Jarid1B (Homo sapiens (Human), UniProt Q9UGL1). Briefly: Jarid1B in vitro enzyme inhibition assay (TR-FRET). To be noted: 0.8 nM Jarid1B, 300 nM H3K4me3-biotin peptide, 2 μM alpha-ketoglutaric acid.
Source text: as §1
as §2, with “The” for “The enzymatic assay of Jarid1A activity is based upon Time Resolved-Fluorescence Resonance Energy Transfer (TR-FRET) detection. The”, “of Jarid1B” for “of Jarid1A”, “conditions: 0.8” for “conditions: 1”, “nM Jarid1B,” for “nM Jarid1A,”
as §3

Where only a bound is given, the exact number is not on record here.

JMJD2C, sequence (Q9H3R0 2-372): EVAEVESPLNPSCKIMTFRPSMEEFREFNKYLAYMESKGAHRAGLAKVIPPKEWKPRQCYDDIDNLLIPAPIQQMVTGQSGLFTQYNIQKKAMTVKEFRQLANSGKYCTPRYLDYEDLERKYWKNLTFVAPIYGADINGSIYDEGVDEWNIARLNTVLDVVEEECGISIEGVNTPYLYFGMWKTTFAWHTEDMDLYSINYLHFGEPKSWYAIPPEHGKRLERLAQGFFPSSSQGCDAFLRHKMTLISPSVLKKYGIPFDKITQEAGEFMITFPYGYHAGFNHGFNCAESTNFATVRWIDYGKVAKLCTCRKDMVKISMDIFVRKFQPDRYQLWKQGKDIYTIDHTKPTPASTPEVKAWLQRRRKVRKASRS
Jarid1A, sequence (P29375 1-1090): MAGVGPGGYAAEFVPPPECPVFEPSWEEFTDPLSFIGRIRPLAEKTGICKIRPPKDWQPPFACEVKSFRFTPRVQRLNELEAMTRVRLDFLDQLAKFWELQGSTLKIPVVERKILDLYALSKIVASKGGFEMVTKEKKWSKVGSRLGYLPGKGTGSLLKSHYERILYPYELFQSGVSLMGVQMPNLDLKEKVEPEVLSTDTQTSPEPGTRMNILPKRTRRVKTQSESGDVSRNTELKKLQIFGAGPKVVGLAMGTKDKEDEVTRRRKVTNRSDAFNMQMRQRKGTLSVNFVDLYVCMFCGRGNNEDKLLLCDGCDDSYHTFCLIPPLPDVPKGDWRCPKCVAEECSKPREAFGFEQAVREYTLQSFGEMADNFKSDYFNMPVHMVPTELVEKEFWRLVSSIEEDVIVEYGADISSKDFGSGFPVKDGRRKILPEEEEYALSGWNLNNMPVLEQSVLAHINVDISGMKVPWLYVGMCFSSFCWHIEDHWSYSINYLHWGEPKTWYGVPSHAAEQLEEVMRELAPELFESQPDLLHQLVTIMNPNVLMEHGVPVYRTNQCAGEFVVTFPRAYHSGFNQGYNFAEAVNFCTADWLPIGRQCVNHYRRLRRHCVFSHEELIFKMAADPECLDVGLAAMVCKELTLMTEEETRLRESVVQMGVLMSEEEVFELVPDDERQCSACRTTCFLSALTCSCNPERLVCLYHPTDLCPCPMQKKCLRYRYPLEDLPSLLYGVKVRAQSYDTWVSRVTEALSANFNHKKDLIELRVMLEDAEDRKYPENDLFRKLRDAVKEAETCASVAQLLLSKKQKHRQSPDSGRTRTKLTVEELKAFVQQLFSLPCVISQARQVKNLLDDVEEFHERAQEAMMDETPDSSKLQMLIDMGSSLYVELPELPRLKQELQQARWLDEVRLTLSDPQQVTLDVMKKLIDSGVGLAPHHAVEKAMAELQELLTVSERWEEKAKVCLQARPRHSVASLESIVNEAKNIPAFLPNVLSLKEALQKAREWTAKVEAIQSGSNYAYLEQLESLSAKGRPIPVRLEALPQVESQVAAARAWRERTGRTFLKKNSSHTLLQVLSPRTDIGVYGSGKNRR
Jarid1B, sequence (Q9UGL1 2-751): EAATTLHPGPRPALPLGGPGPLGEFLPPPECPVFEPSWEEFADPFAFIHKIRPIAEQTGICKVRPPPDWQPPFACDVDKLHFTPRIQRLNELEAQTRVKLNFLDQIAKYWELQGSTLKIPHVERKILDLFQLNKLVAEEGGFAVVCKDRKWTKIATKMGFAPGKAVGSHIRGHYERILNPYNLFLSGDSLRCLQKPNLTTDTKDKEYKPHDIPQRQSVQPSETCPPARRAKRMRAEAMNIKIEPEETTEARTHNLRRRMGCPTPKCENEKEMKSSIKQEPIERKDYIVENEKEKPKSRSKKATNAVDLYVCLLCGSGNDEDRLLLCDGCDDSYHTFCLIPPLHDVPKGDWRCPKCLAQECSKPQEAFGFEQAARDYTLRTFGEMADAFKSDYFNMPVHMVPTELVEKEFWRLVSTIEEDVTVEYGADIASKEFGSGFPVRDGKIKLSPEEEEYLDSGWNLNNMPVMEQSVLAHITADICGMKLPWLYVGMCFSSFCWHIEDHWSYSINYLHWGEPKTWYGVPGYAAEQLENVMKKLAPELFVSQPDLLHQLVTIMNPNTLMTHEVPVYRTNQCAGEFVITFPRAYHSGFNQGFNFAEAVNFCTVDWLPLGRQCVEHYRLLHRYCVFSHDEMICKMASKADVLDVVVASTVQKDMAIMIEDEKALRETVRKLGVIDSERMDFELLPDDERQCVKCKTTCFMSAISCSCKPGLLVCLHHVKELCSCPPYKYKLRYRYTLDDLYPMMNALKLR

The term IC50 denotes the concentration at which inhibition is half-maximal. Higher therefore signals lower potency. Consider `Cc1ccc(CNc2cnccc2C(=O)O)o1` [Example 40, 3-{[(5-methylfuran-2-yl)methyl]amino}pyridine-4-carboxylic acid], for which the IC50 in experiment [1], in experiment [2] and in experiment [3] was ≤ 100 nM each time.
Take `O=C(O)c1ccncc1NCc1cc2ccccc2o1` [Example 41, 3-[(1-benzofuran-2-ylmethyl)amino]pyridine-4-carboxylic acid]: the IC50 in experiment [1], in experiment [2] and in experiment [3] was ≤ 100 nM each time.
Turning to `O=C(O)c1ccncc1NCC12CC3CC(CC(C3)C1)C2` [Example 42, 3-[(adamantan-1-ylmethyl)amino]pyridine-4-carboxylic acid], the results for the IC50 in experiment [1], in experiment [2] and in experiment [3] were 100 to 1000 nM, ≤ 100 nM and 100 to 1000 nM, respectively.
Turning to `O=C(O)c1ccncc1NCC1Cc2ccccc2O1` (stereo not drawn) [Example 43, 3-[(2,3-dihydro-1-benzofuran-2-ylmethyl)amino]pyridine-4-carboxylic acid], the IC50 in experiment [1], in experiment [2] and in experiment [3] was ≤ 100 nM in each case.
Turning to `O=C(O)c1ccncc1NCC1COc2ccccc2O1` (stereo not drawn) [Example 44, 3-[(2,3-dihydro-1,4-benzodioxin-2-ylmethyl)amino]pyridine-4-carboxylic acid], the IC50 in experiment [1], in experiment [2] and in experiment [3] was ≤ 100 nM each time.
Turning to `O=C(O)c1ccncc1NCC1CCCc2ccccc21` (stereo not drawn) [Example 46, 3-[(1,2,3,4-tetrahydronaphthalen-1-ylmethyl)amino]pyridine-4-carboxylic acid], the IC50 is ≤ 100 nM in experiment [1], 100 to 1000 nM in experiment [2] and ≤ 100 nM in experiment [3].
`O=C(O)c1ccncc1NC[C@H]1CCCc2ccccc21` [Example 47, 3-{[(1S)-1,2,3,4-tetrahydronaphthalen-1-ylmethyl]amino}pyridine-4-carboxylic acid]: the IC50 in experiment [1] was ≤ 100 nM; in experiment [2] it was 100 to 1000 nM; in experiment [3] it was ≤ 100 nM.
Consider `O=C(O)c1ccncc1NC[C@@H]1CCCc2ccccc21` [Example 48, 3-{[(1R)-1,2,3,4-tetrahydronaphthalen-1-ylmethyl]amino}pyridine-4-carboxylic acid], for which the IC50 in experiment [1], in experiment [2] and in experiment [3] was 100 to 1000 nM each time.
`CC1(CNc2cnccc2C(=O)O)CCCc2ccccc21` (stereo not drawn) [Example 49, 3-{[(1-methyl-1,2,3,4-tetrahydronaphthalen-1-yl)methyl]amino}pyridine-4-carboxylic acid]: the IC50 in experiment [1], in experiment [2] and in experiment [3] was 100 to 1000 nM each time.
For `O=C(O)c1ccncc1NCC1CCCc2ccc(C3CC3)cc21` (stereo not drawn) [Example 53, 3-{[(7-cyclopropyl-1,2,3,4-tetrahydronaphthalen-1-yl)methyl]amino}pyridine-4-carboxylic acid], the IC50 in experiment [1] was ≤ 100 nM; in experiment [2], 100 to 1000 nM; in experiment [3] it was ≤ 100 nM.
Take `O=C(O)c1ccncc1NCC1CCOc2ccccc21` (stereo not drawn) [Example 58, 3-[(3,4-dihydro-2H-chromen-4-ylmethyl)amino]pyridine-4-carboxylic acid]: the IC50 in experiment [1], in experiment [2] and in experiment [3] was ≤ 100 nM in each case.
Regarding `COc1ccc2c(c1)CCCC2CNc1cnccc1C(=O)O` (stereo not drawn) [Example 60, 3-{[(6-methoxy-1,2,3,4-tetrahydronaphthalen-1-yl)methyl]amino}pyridine-4-carboxylic acid], the figures for the IC50 in experiment [1], in experiment [2] and in experiment [3] were ≤ 100 nM, 100 to 1000 nM and ≤ 100 nM, respectively.
Turning to `Cc1ccc2c(c1)C(CNc1cnccc1C(=O)O)CCO2` (stereo not drawn) [Example 63, 3-{[(6-methyl-3,4-dihydro-2H-chromen-4-yl)methyl]amino}pyridine-4-carboxylic acid], the figures for the IC50 in experiment [1], in experiment [2] and in experiment [3] were ≤ 100 nM, 100 to 1000 nM and ≤ 100 nM, respectively.

These data come from US9611221B2, “Histone demethylase inhibitors” (CELGENE QUANTICEL RESEARCH, INC., priority 2012, dated 2017).
